Inhibition and Ki data for 23 compounds are collected here from ChEMBL document CHEMBL1153082, “Design and synthesis of N(6)-substituted-4'-thioadenosine-5'-uronamides as potent and selective human A(3) adenosine receptor agonists” (Bioorg Med Chem, 2009).

Test [1] has as its target T1, Adenosine receptor A2a (Homo sapiens, UniProt P29274). Briefly: Displacement of [3H]CGS21680 from human adenosine A2A receptor expressed in CHO cells at 1 uM. Format: cell-based. (In general: Loss of bound radioactivity is the signal in a displacement assay; it reports binding, not function.)
The target in test [2] is T2, Adenosine receptor A3 (Homo sapiens, UniProt P0DMS8).
T2 sequence (P0DMS8 whole entry): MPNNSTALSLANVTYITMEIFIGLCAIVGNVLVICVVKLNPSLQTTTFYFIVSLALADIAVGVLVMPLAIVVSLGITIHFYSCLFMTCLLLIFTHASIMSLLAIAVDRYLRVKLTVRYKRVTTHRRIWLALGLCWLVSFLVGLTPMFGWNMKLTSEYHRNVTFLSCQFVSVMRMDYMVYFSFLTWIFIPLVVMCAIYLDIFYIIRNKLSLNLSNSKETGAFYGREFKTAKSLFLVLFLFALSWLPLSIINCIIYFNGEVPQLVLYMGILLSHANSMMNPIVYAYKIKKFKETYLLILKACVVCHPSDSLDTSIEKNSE
Put plainly: biochemical.

Test [3] deals with T3, Adenosine receptor A1 (Homo sapiens, UniProt P30542).
T3 sequence (P30542 whole entry): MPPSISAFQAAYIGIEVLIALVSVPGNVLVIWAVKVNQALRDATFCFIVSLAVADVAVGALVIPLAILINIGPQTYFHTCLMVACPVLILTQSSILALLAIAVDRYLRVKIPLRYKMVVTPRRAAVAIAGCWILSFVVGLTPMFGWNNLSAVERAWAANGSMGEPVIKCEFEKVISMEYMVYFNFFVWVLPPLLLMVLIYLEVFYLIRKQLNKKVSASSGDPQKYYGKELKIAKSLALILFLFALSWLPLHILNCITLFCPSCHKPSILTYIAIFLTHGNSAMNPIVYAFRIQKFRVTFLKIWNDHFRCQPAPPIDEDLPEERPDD
Briefly: biochemical.

Test [4] deals with T4, Adenosine receptor A1 (Homo sapiens) (UniProt P30542).
T4 sequence (whole entry): T3 sequence (P30542 whole entry)
Put plainly: Displacement of [3H]R-PIA from human adenosine A1 receptor expressed in CHO cells at 1 uM. Format: cell-based.

In test [5] the target is T1, Adenosine receptor A2a. Briefly: biochemical.
Test [6] deals with T3, Adenosine receptor A1.
Test [7] deals with T1, Adenosine receptor A2a.

A word on the inhibition: it is the relative decrease from the control value, in per cent. One may read the Ki as a measure of affinity in units of concentration, obtained from inhibition or displacement.

T1 sequence (P29274 whole entry): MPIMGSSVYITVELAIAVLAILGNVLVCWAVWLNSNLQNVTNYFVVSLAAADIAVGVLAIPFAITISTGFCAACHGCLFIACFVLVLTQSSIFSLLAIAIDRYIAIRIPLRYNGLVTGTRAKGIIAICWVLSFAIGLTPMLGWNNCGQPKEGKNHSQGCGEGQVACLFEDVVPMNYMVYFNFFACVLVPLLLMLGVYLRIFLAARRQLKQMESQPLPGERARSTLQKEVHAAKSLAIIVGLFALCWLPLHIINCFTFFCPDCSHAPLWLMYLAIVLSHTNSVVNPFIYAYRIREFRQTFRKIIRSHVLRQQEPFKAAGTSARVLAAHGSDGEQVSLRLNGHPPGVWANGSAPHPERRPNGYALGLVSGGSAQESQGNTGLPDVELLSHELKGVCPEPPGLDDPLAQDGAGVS

For `CCNC(=O)[C@H]1S[C@@H](n2cnc3c(NC)ncnc32)[C@H](O)[C@@H]1O`, the inhibition in test [1] stood at 38%. Further, the figures for the inhibitory constant (Ki) in test [2] and in test [3] were 0.97 nM and 4.83 nM, respectively.
For the compound `O=C(NCc1cccc(F)c1)[C@H]1S[C@@H](n2cnc3c(NCc4cccc(I)c4)ncnc32)[C@H](O)[C@@H]1O`, the inhibition is 44% in test [1] and 25% in test [4]. Also, in test [2], the Ki was 61.1 nM.
As for `CNc1ncnc2c1ncn2[C@@H]1S[C@H](C(=O)NC2CCC2)[C@@H](O)[C@H]1O`, the inhibition constant Ki in test [5] is 108 nM; in test [2], 1.04 nM; in test [3] it was 6.27 nM.
Turning to `CNc1ncnc2c1ncn2[C@@H]1S[C@H](C(=O)NCC2CC2)[C@@H](O)[C@H]1O`, the inhibition in test [1] was found to be 45%. In addition, the Ki in test [2] was 1.35 nM; in test [3], 33.1 nM.
As for `CNC(=O)[C@H]1S[C@@H](n2cnc3c(NCc4cccc(I)c4)ncnc32)[C@H](O)[C@@H]1O`, the inhibition constant (Ki) was determined as 20.2 nM in test [6] and 475 nM in test [7].
As for `Cc1cccc(CNC(=O)[C@H]2S[C@@H](n3cnc4c(NCc5cccc(I)c5)ncnc43)[C@H](O)[C@@H]2O)c1`, the inhibition in test [1] amounted to 37%. Besides, the Ki came out at 94.9 nM in test [2] and 4070 nM in test [3].
For `CCNC(=O)[C@H]1S[C@@H](n2cnc3c(NCc4cccc(I)c4)ncnc32)[C@H](O)[C@@H]1O`, the Ki was found to be 57.6 nM in test [5], 0.42 nM in test [2] and 5.4 nM in test [3].
`CNc1ncnc2c1ncn2[C@@H]1S[C@H](C(=O)NCc2cccc(I)c2)[C@@H](O)[C@H]1O`: the inhibition in test [1] and in test [4] was 24% throughout. Further, the inhibition constant (Ki) in test [2] is 15.6 nM.
Turning to `CCOc1ccccc1CNC(=O)[C@H]1S[C@@H](n2cnc3c(NCc4cccc(I)c4)ncnc32)[C@H](O)[C@@H]1O`, the inhibition was 20% in test [1] and 12% in test [4]. This compound gave an inhibition constant Ki in test [2] of 113 nM.
With `O=C(NCCc1ccccc1)[C@H]1S[C@@H](n2cnc3c(NCc4cccc(I)c4)ncnc32)[C@H](O)[C@@H]1O`, the inhibition in test [1] was 38%; in test [4], 20%. Also, the affinity in test [2], expressed as Ki, was 433 nM.
The like results for `Cc1ccccc1CNC(=O)[C@H]1S[C@@H](n2cnc3c(NCc4cccc(I)c4)ncnc32)[C@H](O)[C@@H]1O` were, in that order, 31%, 18% and 31 nM.
In test [1], `CNc1ncnc2c1ncn2[C@@H]1S[C@H](C(=O)NC2CCCC2)[C@@H](O)[C@H]1O` returned an inhibition of 27%. Also, the results for the Ki in test [2] and in test [3] were 0.97 nM and 48.6 nM, respectively.
Regarding `Cc1ccc(CNC(=O)[C@H]2S[C@@H](n3cnc4c(NCc5cccc(I)c5)ncnc43)[C@H](O)[C@@H]2O)cc1`, the inhibition came out at 28% in test [1] and 15% in test [4]. In addition, the Ki in test [2] was found to be 135 nM.
For `O=C(NCc1cccc2ccccc12)[C@H]1S[C@@H](n2cnc3c(NCc4cccc(I)c4)ncnc32)[C@H](O)[C@@H]1O`, the inhibition in test [1] turned out to be 11%; in test [4], 20%. The inhibition constant Ki in test [2] amounted to 1200 nM.
As for `COc1ccccc1CNC(=O)[C@H]1S[C@@H](n2cnc3c(NCc4cccc(I)c4)ncnc32)[C@H](O)[C@@H]1O`, the inhibition in test [1] amounted to 23%; in test [4], 34%. The same compound returned a Ki in test [2] of 97 nM.
For `O=C(NCC1CC1)[C@H]1S[C@@H](n2cnc3c(NCc4cccc(I)c4)ncnc32)[C@H](O)[C@@H]1O`, the Ki in test [5] worked out at 1600 nM; in test [2] it was 2.16 nM; in test [3], 159 nM.
Take `O=C(NC(c1ccccc1)c1ccccc1)[C@H]1S[C@@H](n2cnc3c(NCc4cccc(I)c4)ncnc32)[C@H](O)[C@@H]1O`: the inhibition in test [4] is 17%. Moreover, the Ki in test [2] was 116 nM.
As for `O=C(NC1CC1)[C@H]1S[C@@H](n2cnc3c(NCc4cccc(I)c4)ncnc32)[C@H](O)[C@@H]1O`, the Ki in test [5] was 15.2 nM; in test [2], 3.03 nM.
For the compound `O=C(NCc1cccc(Cl)c1)[C@H]1S[C@@H](n2cnc3c(NCc4cccc(I)c4)ncnc32)[C@H](O)[C@@H]1O`, the results for the inhibition in test [1] and in test [4] were 26% and 25%, respectively. Also, the inhibition constant (Ki) in test [2] was 144 nM.
With `O=C(NC1CCCCC1)[C@H]1S[C@@H](n2cnc3c(NCc4cccc(I)c4)ncnc32)[C@H](O)[C@@H]1O`, the inhibition in test [1] was determined as 35%; in test [4], 28%. Further, the Ki in test [2] amounted to 35.4 nM.
For the compound `O=C(NC1CCC1)[C@H]1S[C@@H](n2cnc3c(NCc4cccc(I)c4)ncnc32)[C@H](O)[C@@H]1O`, the results for the Ki in test [5], in test [2] and in test [3] were 122 nM, 1.17 nM and 23.6 nM, respectively.
In test [1], `CNC(=O)[C@H]1S[C@@H](n2cnc3c(NC)ncnc32)[C@H](O)[C@@H]1O` gave an inhibition of 20%. Besides, the Ki amounted to 1.19 nM in test [2] and 69.5 nM in test [3].
With `CNc1ncnc2c1ncn2[C@@H]1S[C@H](C(=O)NC2CC2)[C@@H](O)[C@H]1O`, the Ki in test [5] was 161 nM; in test [2], 2.16 nM; in test [3], 6.58 nM.
